Experimental data from patent US20260308102A1, “18F-FLUORINATED FATTY ACIDS AND USES THEREOF” (Ratio Therapeutics, Inc., priority 2022, published 2026).
“Also recorded” adds a separate entry of the source.

Columns and labels:
[1] = Dynamic PET imaging (60 min) of butyrate analogues (Example 1); format: in vivo, wild type mice; details: for in vivo behavior / biodistribution, comparison of isomers: 4-[^18F]FB vs 2-[^18F]FB
Experimental: FIG. 10 is a series of dynamic μPET/CT images depicting the biodistribution of 2-[^18F]FB and 4-[^18F]FB in wild type mice. Stable biodistribution was achieved after 45 minutes p.i.
Animals were anesthetized under 3% isoflurane in 02. […] Animals were allowed to recover from anesthesia and were carefully observed before moving them back to the holding facility for decay. Data was reconstructed as five 12-minute frames and as twelve 5-minute frames for analysis.

[2] = Static μPET/CT imaging at 45 min p.i. of medium and long chain 18F-fatty acids (Example 2); details: for brain uptake: includes earlier short chain data; for defluorination (bone uptake) / metabolic rate: static PET
Experimental: All animal experiments were approved by the Albert Einstein College of Medicine IACUC. Wild type immunocompetent animals were used for imaging. Feeding and water conditions were maintained throughout the study. Animals were never fasted.
The agent was administered to awake animals via tail-vein injection (9.25-18.5 MBq, or 250-500 μCi, n=2) and placed back into their cages. At 40 minutes post injection (henceforth p.i.), animals were place in an acrylic enclosure under 4% isoflurane anesthesia in O2 for initial knockdown, then reduced to 2.5%. Once asleep, animals were placed in the imaging holder and a 5-minute CT followed by a 15-minute static PET were performed (Approx. 45-60 min p.i.). As before, animals were allowed to recover from the anesthesia before returning to the holding facility for radiotracer decay. Images were analyzed by drawing regions of interest (ROIs) and quantifying the amount of tracer present as percent of injected activity per cubic centimeter (% IA/cc). Blood, urinary bladder and gut activity were determined by computer drawing of 2 mm diameter ROI spheres in the left cardiac ventricle, the urinary bladder and the areas of specific gut uptake, respectively. Brain, liver and kidney ROIs were drawn CT-aided and the radioactive contents were later quantified.

[3] = Static μPET/CT imaging at 45 min p.i. of short chain 18F-fatty acids and esters (Example 1)
Experimental: FIG. 1 is a series of Static Sagital and Coronal Maximum Intensity Projections (MIPs) μPET/CT images obtained at 45 minutes p.i. for the compounds studied (excluding palmitate) in normally fed animals. Imaging with ethyl-protected intermediates are also shown (e-).
Wild type immunocompetent animals were used, both for imaging and biodistribution experiments.
The activity was administered to the awake animals (n=2) via tail-vein injection (9.25-18.5 MBq, or 250-500 μCi) and placed back into their cages. At 35 minutes post injection (p.i.), animals were place in an acrylic enclosure under 4% isoflurane anesthesia in O2 for initial knockdown, then reduced to 2.5%. Once asleep, animals were placed in the imaging holder and a 5-minute CT was followed by a 15-minute static PET (approx. 45-60 min p.i., or 10-15 min after completion of anesthesia). As before, animals were allowed to recover from the anesthesia before returning to the holding facility for decay. When warranted, animals were studied with regular feeding and fasting for 6-12 hours to evaluate any difference in biodistribution.

[4] = tested on: monocarboxylate transporter (MCT); assay: PET imaging of 2-[^18F]FP with lactate displacement and MCT inhibition by AZD-3965 co-injection; format: in vivo, wild type mice
Excerpt: FIG. 2 is a graph depicting PET-derived quantification of brain and pancreatic (“gut”) uptake of 2-[^18F]FP and 2-(L)-[^18F]FP under different conditions (n=2).
FIG. 12 is a collection of dynamic μPET/CT images that compare different imaging conditions including blocking with the MCT1 blocker AZD3965.
Further experiments to test the possibility of using 2-[^18F]FP and 2-(L)-[^18F]FP as a lactate surrogate, including co-injection with (L)Lactate, (D)Lactate, and AZD-3965 to produce displacement and monocarboxylate transporter (MCT) inhibition (respectively) were conducted and results can be observed in FIG. 2. The corresponding μPET/CT images can be found in the FIG. 12.
The unique characteristics of 2-[^18F]FP open many possibilities to study cancers and brain/CNS function and metabolism. As with 2-[^18F]FB the enantiomers have not been separated for either production or quality control. However, parametric production of 2-(L)-[^18F]FP was possible since the ethyl(2R)-2-{[(4-methylphenyl) sulfonyl]oxy}propanoate is commercially available. This compound's ability to resemble (L)-lactate has been contested in vitro, with confounding in vivo results. For comparison we co-injected 2-[^18F]FP separately with 0.5 and 5 mg/kg (L) and (D) sodium lactate (an increase of 5 and 50% respectively in homeostatic lactate circulation), and 5 mg/Kg of AZD-3965, an monocarboxylate transporter (MCT) 1 and 2 inhibitor (Ki(MCT1)=3 nM, Ki(MCT2)=20 nM) in the same animal model.

MCT1 [5] = details: in vitro, Van Hée et al.; cited from earlier work
[6] = Stability in HCl and saline solution; format: physicochemical; details: for stability in HCl: HCl lower than 3 M
MCT1 [7] = details: role: inhibitor; cited from earlier work
MCT2 = details: role: inhibitor; cited from earlier work
[8] = cancer patients; cited from earlier work
[9] = co-injection with AZD-3965, 5 mg/Kg

SMILES: CCC([18F])C(=O)O (racemic) [2-[^18F]FB, 2-[^18F]Fluorobutyrate]
- brain/central nervous system (CNS) uptake [1]: the highest of the studied series
- gut uptake [1]: seemingly specific gut uptake
- in vivo behavior / biodistribution, comparison of isomers [1]: behaved very differently in vivo
- brain uptake ([2]; 45 min p.i.): High brain uptake
- brain uptake ([2]; 45 min p.i., listed as 2-[^18F]Fluorobutyrate): peaking
- brain uptake, fasted vs fed ([3]; fasted vs fed, 45 min p.i.): small reduction in brain uptake (not significant)
- circulatory activity, fasted vs fed ([3]; fasted vs fed, 45 min p.i.): slight increase in circulatory activity
- gut uptake, fasted vs fed ([3]; fasted vs fed, 45 min p.i.): modest reduction; also recorded: reduction in the aforementioned specifically located gut uptake
- metabolic activity / defluorination, fasted vs fed ([3]; fasted vs fed, 45 min p.i.): reduced defluorination; also recorded: slight decrease in metabolic rate
- brain/CNS uptake ([3]; static PET, 45 min p.i., fed): marked brain uptake
- brain uptake with or without isoflurane anesthesia and fasting ([3]; with or without isoflurane, with or without fasting): remained unchanged with or without isoflurane anesthesia, and with or without fasting

SMILES: CCCCC([18F])C(=O)O (racemic) [2-[^18F]FC, 2-Fluorocaproate]
- specific abdominal uptake ([2]; 45 min p.i.): not found
- brain uptake ([2]; 45 min p.i.): High brain uptake; also recorded: the longest substrate absorbed by the brain
- defluorination (bone uptake) ([2]; 45 min p.i.): Almost no defluorination

SMILES: CCCCCCC([18F])C(=O)O (racemic) [2-[^18F]FCy, 2-Fluorocaprylate]
- specific abdominal uptake ([2]; 45 min p.i.): not found
- brain uptake ([2]; 45 min p.i.): significantly reduced
- defluorination (bone uptake) ([2]; 45 min p.i.): Almost no defluorination

SMILES: CCCCCC([18F])C(=O)O (racemic) [2-[^18F]FE, 2-Fluoroenanthate]
- specific abdominal uptake ([2]; 45 min p.i.): not found
- brain uptake ([2]; 45 min p.i.): significantly reduced; also recorded: all brain uptake is stopped; also recorded: stops abruptly
- defluorination (bone uptake) ([2]; 45 min p.i.): small bone uptake

SMILES: CC([18F])C(=O)O (racemic) [2-[^18F]FP, 2-[^18F]Fluoropropionate]
- abdominal uptake under different imaging conditions ([4]; different imaging conditions (fasting, lactate)): remained stable and not affected by the different imaging conditions
- average brain uptake, fasting or co-injection with (L)-lactate ([4]; fasting, co-injection with 5 mg/kg (L)-lactate, differences not significant): slight increase in average brain uptake
- MCT1-dependent accumulation (MCT1 [5]): does not accumulate in a MCT1-dependent manner
- brain uptake ([2]; 45 min p.i.): High brain uptake
- apparent stability in vivo ([3]; no metabolite analysis performed): seems to be stable in vivo in the studied period; also recorded: high apparent probe stability in vivo
- blood circulation time ([3]; static PET, 45 min p.i.): decreased circulation times
- defluorination in vivo ([3]; static PET, 45 min p.i.): only minor defluorination was observed; also recorded: no defluorination was observed
- brain/CNS uptake ([3]; static PET, 45 min p.i., fed): maintained CNS uptake; also recorded: specific uptake in brain and the central nervous system; also recorded: marked brain uptake

SMILES: CCCCCCCCCCCCCCC([18F])C(=O)O (racemic) [2-[^18F]FPalm, 2-[^18F]Fluorohexadecanoic acid]
- blood content ([2]; 45 min p.i.): reduced
- liver uptake ([2]; 45 min p.i.): predominant liver uptake
- specific abdominal uptake ([2]; 45 min p.i.): not found
- brain uptake ([2]; 45 min p.i.): significantly reduced
- defluorination (bone uptake) ([2]; 45 min p.i.): slightly higher defluorination rate

SMILES: CCCC([18F])C(=O)O (racemic) [2-[^18F]FV, 2-Fluorovalerate]
- specific abdominal uptake ([2]; 45 min p.i.): evident
- brain uptake ([2]; 45 min p.i.): High brain uptake
- defluorination (bone uptake) ([2]; 45 min p.i.): small bone uptake

SMILES: CC(C)([18F])C(=O)O [2-[^18F]FIB, 2-[^18F]Fluoroisobutyrate]
- blood circulation time ([3]; static PET, 45 min p.i.): long circulation time
- defluorination in vivo ([3]; static PET, 45 min p.i.): without defluorination
- general biodistribution ([3]; static PET, 45 min p.i.): non-specificity
- brain/CNS uptake ([3]; static PET, 45 min p.i., fed): marked brain uptake in contrast to their branched congener

SMILES: CC([18F])CC(=O)O (stereo not drawn) [3-[^18F]FB, 3-[^18F]Fluorobutyrate]
- stability in HCl [6]: not stable
- stability in saline solution [6]: decomposed immediately

SMILES: O=C(O)CC[18F] [3-[^18F]FP, 3-[^18F]Fluoropropionate]
- stability in HCl [6]: not stable
- stability in saline solution [6]: decomposed immediately

SMILES: O=C(O)CCC[18F] [4-[^18F]FB, 4-[^18F]Fluorobutyrate]
- in vivo behavior / biodistribution, comparison of isomers [1]: behaved very differently in vivo
- circulatory activity, fasted vs fed ([3]; fasted vs fed, 45 min p.i.): slight increase in circulatory activity
- metabolic activity / defluorination, fasted vs fed ([3]; fasted vs fed, 45 min p.i.): reduced defluorination; also recorded: reduction in metabolic activity was especially noticeable; also recorded: slight decrease in metabolic rate

SMILES: O=C(O)CCCC[18F] [5-[^18F]FV, 5-Fluorovalerate]
- metabolic rate ([2]; 45 min p.i.): much faster metabolic rate than that of 6-[^18F]FC and 8-[^18F]FCy

SMILES: O=C(O)CCCCCC[18F] [7-[^18F]FE, 7-Fluoroenanthate]
- metabolic rate ([2]; 45 min p.i.): much faster metabolic rate than that of 6-[^18F]FC and 8-[^18F]FCy

SMILES: O=C(O)CCCCCCCCCCCCCCC[18F] [16-[^18F]FPalm, 16-[^18F]Fluorohexadecanoic acid]
- bright spot in liver / autopsy finding ([2]; one animal): a bright spot was found in one the animal's liver, but later autopsy did not revealed any interesting finding
- defluorination (bone uptake) ([2]; 45 min p.i.): faster for the 16-substituted compound, although much slower in contrast to its MCFA n-substituted congeners

SMILES: Cc1[nH]nc(C(F)(F)F)c1Cc1sc2c(c1C(=O)N1C[C@](C)(O)CO1)c(=O)n(C)c(=O)n2C(C)C [AZD-3965]
- blocking of gut uptake by AZD-3965 ([4]; co-injection with AZD-3965): selectively blocked
- blocking of uptake / biodistribution by AZD-3965 [4, 9]: blocked the overall biodistribution of 2-[^18F]FP; also recorded: significant blocking of fatty acid uptake
- excretion with AZD-3965 co-injection [4, 9]: almost complete excretion; also recorded: increased excretion
- Ki (MCT1 [7]): 0.003 µM
- Ki (MCT2): 0.02 µM

SMILES: CC(=O)O [[^11C]Acetate]
- uptake in comparison with [^18F]FDG [8]: mutually exclusive

SMILES: O=C(O)C[18F] [[^18F]FA, [^18F]Fluoroacetate]
- brain uptake ([2]; 45 min p.i.): High brain uptake
- blood circulation time ([3]; static PET, 45 min p.i.): decreased circulation times
- brain/CNS uptake ([3]; static PET, 45 min p.i., fed): maintained CNS uptake
- specific gut uptake ([3]; static PET, 45 min p.i., fed): highest uptake

SMILES: CCOC(=O)C([18F])CC (stereo not drawn) [e-2-[^18F]FB, Ethyl 2-[^18F]Fluorobutyrate]
- blood circulation time ([3]; static PET, 45 min p.i.): slightly longer blood circulation
- general biodistribution ([3]; static PET, 45 min p.i.): almost identical biodistribution

SMILES: CCOC(=O)CC(C)[18F] (stereo not drawn) [e-3-[^18F]FB, Ethyl 3-[^18F]Fluorobutyrate]
- stability in HCl [6]: not stable
- stability in saline solution [6]: decomposed immediately

SMILES: CCOC(=O)CC[18F] [e-3-[^18F]FP, Ethyl 3-[^18F]Fluoropropionate]
- stability in HCl [6]: not stable
- stability in saline solution [6]: decomposed immediately

SMILES: CCOC(=O)CCC[18F] [e-4-[^18F]FB, Ethyl 4-[^18F]Fluorobutyrate]
- blood circulation time ([3]; static PET, 45 min p.i.): slightly longer blood circulation
- general biodistribution ([3]; static PET, 45 min p.i.): almost identical biodistribution
